Values quoted from earlier work as cited in paper PMC12736226, “Acid Versus Amide—Facts and Fallacies: A Case Study in Glycomimetic Ligand Design” (Molecules, 2025).

Biological target: T1, E-selectin (Homo sapiens, UniProt P16581)
T1 construct: gene SELE; soluble extracellular lectin-domain fragment with Ca2+
T1 sequence (P16581 22-301): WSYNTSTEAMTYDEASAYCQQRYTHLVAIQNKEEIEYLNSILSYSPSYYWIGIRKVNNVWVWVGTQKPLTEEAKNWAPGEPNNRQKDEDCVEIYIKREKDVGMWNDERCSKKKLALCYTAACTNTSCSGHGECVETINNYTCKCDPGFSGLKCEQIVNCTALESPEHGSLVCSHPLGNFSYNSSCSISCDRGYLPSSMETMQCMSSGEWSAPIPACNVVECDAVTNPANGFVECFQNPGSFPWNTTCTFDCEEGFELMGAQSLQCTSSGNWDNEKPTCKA
Assay: microscale thermophoresis (MST)
Assay type: binding
Details: affinity data also reported in Ref. 25; read-out: Affinity KD MST [μM] (95% CI)
Source text: microscale thermophoresis (MST) on E-selectin

Row | SMILES | Kd
1 | C[C@@H]1O[C@@H](O[C@@H]2CCCC[C@H]2O[C@@H]2O[C@H](CO)[C@H](O)[C@H](O[C@@H](CC3CCCCC3)C(N)=O)[C@H]2O)[C@@H](O)[C@H](O)[C@@H]1O [3a] | 166 µM
2 | CNC(=O)[C@H](CC1CCCCC1)O[C@H]1[C@@H](O)[C@@H](CO)O[C@@H](O[C@@H]2CCCC[C@H]2O[C@@H]2O[C@@H](C)[C@@H](O)[C@@H](O)[C@@H]2O)[C@@H]1O [3b] | 112 µM
3 | CCNC(=O)[C@H](CC1CCCCC1)O[C@H]1[C@@H](O)[C@@H](CO)O[C@@H](O[C@@H]2CCCC[C@H]2O[C@@H]2O[C@@H](C)[C@@H](O)[C@@H](O)[C@@H]2O)[C@@H]1O [3c] | 109 µM
4 | C[C@@H]1O[C@@H](O[C@@H]2CCCC[C@H]2O[C@@H]2O[C@H](CO)[C@H](O)[C@H](O[C@@H](CC3CCCCC3)C(=O)N(C)C)[C@H]2O)[C@@H](O)[C@H](O)[C@@H]1O [3d] | 34.6 µM
5 | C[C@@H]1O[C@@H](O[C@@H]2CCCC[C@H]2O[C@@H]2O[C@H](CO)[C@H](O)[C@H](O[C@@H](CC3CCCCC3)C(=O)N3CCCC3)[C@H]2O)[C@@H](O)[C@H](O)[C@@H]1O [3e] | 21.4 µM
6 | C[C@@H]1O[C@@H](O[C@@H]2CCCC[C@H]2O[C@@H]2O[C@H](CO)[C@H](O)[C@H](O[C@@H](CC3CCCCC3)C(=O)N3CCC3)[C@H]2O)[C@@H](O)[C@H](O)[C@@H]1O [3f] | 17 µM
7 | C[C@@H]1O[C@@H](O[C@@H]2CCCC[C@H]2O[C@@H]2O[C@H](CO)[C@H](O)[C@H](O[C@@H](CC3CCCCC3)C(=O)N3CC(c4ccccc4)C3)[C@H]2O)[C@@H](O)[C@H](O)[C@@H]1O [3h] | 16.2 µM
8 | C[C@@H]1O[C@@H](O[C@@H]2CCCC[C@H]2O[C@@H]2O[C@H](CO)[C@H](O)[C@H](O[C@@H](CC3CCCCC3)C(=O)N3CC(C)(C)C3)[C@H]2O)[C@@H](O)[C@H](O)[C@@H]1O [3i] | 38.2 µM
9 | CC(=O)N[C@H]1[C@H]([C@H](O)[C@H](O)CO)O[C@@](O[C@H]2[C@@H](O)[C@@H](CO)O[C@@H](O[C@H]3[C@H](O[C@@H]4O[C@@H](C)[C@@H](O)[C@@H](O)[C@@H]4O)[C@@H](NC(C)=O)C(O)O[C@@H]3CO)[C@@H]2O)(C(=O)O)C[C@@H]1O (stereo partly drawn) [compound 1, Sialyl Lewis^x] | 873 µM
